system: A549 cells; test: Proliferation Assay (A549 viability, Cell Titer Fluor, 72 hours); assay type: cell-based; settings: Homo sapiens, A549, 72 h
Description: A549 cells were routinely maintained in RPMI 1640 media (Gibco catalog number 11875-093) supplemented with 10% dialyzed fetal bovine serum using a humidified incubator (37° C., 5% CO2 and ambient O2). In preparation for the viability assay, cells were inoculated into 384-well black CulturPlates (Perkin Elmer) at a density of 1000 cells/well in a volume of 40 uL. Following a 24-hour incubation at 37° C., 5% CO2 and ambient O2, cells were treated with compound (10 uL) in a final DMSO concentration of 0.5% (v/v). The microplates were then incubated for 72 hours (37° C., 5% CO2 and ambient O2). Cell Titer Fluor (Promega) was subsequently added (10 uL of 6× reagent) and mixed for 15 minutes at room temperature. The plates were then incubated for 30 minutes (37° C., 5% CO2 and ambient O2) and fluorescence was subsequently read on the Perkin Elmer Envision plate reader. IC50 values were calculated using a four-parameter logistic curve fit.
Non-limiting examples include the following compounds and pharmaceutically acceptable salts thereof. […] “ND” indicates no data.

| Compound | EC50 |
| --- | --- |
| O=C(Cc1cncc(OC2CC(F)(F)C2)c1)Nc1ccc(CCCCn2cc(C(=O)NCc3cc(C(F)(F)F)ccn3)nn2)nn1 [Example 230, 1-(4-(6-(2-(5-(3,3-difluorocyclobutoxy)pyridin-3-yl)acetamido)pyridazin-3-yl)butyl)-N-((4-(trifluoromethyl)pyridin-2-yl)methyl)-1H-1,2,3-triazole-4-carboxamide] | < 100 nM |
| O=C(Cc1cncc(OC2CC(F)(F)C2)c1)Nc1ccc(CCCCn2cc(C(=O)NCc3ccccn3)nn2)nn1 [Example 231, 1-(4-(6-(2-(5-(3,3-difluorocyclobutoxy)pyridin-3-yl)acetamido)pyridazin-3-yl)butyl)-N-(pyridin-2-ylmethyl)-1H-1,2,3-triazole-4-carboxamide] | < 100 nM |
| CNC(=O)c1cn(CC(F)CCc2ccc(NC(=O)Cc3cc(C(F)(F)F)ccn3)nn2)nn1 (stereo not shown) [Example 248, 1-(2-fluoro-4-(6-(2-(4-(trifluoromethyl)pyridin-2-yl)acetamido)pyridazin-3-yl)butyl)-N-methyl-1H-1,2,3-triazole-4-carboxamide] | < 100 nM |
| CNC(=O)c1cn(CC(F)CCc2ccc(NC(=O)Cc3cc(OC4CC(F)(F)C4)ccn3)nn2)nn1 (stereo not shown) [Example 252, 1-(4-(6-(2-(4-(3,3-difluorocyclobutoxy)pyridin-2-yl)acetamido)pyridazin-3-yl)-2-fluorobutyl)-N-methyl-1H-1,2,3-triazole-4-carboxamide] | < 100 nM |
| CNC(=O)c1cn(C[C@@H](F)CCc2ccc(NC(=O)Cc3cc(C(F)(F)F)ccn3)nn2)nn1 [Example 260, (S)-1-(2-fluoro-4-(6-(2-(4-(trifluoromethyl)pyridin-2-yl)acetamido)pyridazin-3-yl)butyl)-N-methyl-1H-1,2,3-triazole-4-carboxamide] | < 100 nM |
| CNC(=O)c1cn(CCCCc2ccc(NC(=O)Cc3cc(OC4CC(F)(F)C4)ccn3)nn2)nn1 [Example 261, 1-(4-(6-(2-(4-(3,3-difluorocyclobutoxy)pyridin-2-yl)acetamido)pyridazin-3-yl)butyl)-N-methyl-1H-1,2,3-triazole-4-carboxamide] | < 100 nM |
| CNC(=O)c1cn(C[C@H](F)CCc2ccc(NC(=O)Cc3cc(C(F)(F)F)cc(C)n3)nn2)nn1 [Example 268, (R)-1-(2-fluoro-4-(6-(2-(6-methyl-4-(trifluoromethyl)pyridin-2-yl)acetamido)pyridazin-3-yl)butyl)-N-methyl-1H-1,2,3-triazole-4-carboxamide] | < 100 nM |
| CNC(=O)c1cn(C[C@H](F)CCc2ccc(NC(=O)Cc3cc(OC4CC(F)(F)C4)ccn3)nn2)nn1 [Example 272, (R)-1-(4-(6-(2-(4-(3,3-difluorocyclobutoxy)pyridin-2-yl)acetamido)pyridazin-3-yl)-2-fluorobutyl)-N-methyl-1H-1,2,3-triazole-4-carboxamide] | < 100 nM |
| N#CCNC(=O)c1cn(CCCCc2ccc(NC(=O)Cc3cccc(OC(F)(F)F)c3)nn2)nn1 [Example 527, N-(cyanomethyl)-1-[4-(6-{2-[3-(trifluoromethoxy)phenyl]acetamido}pyridazin-3-yl)butyl]-1H-1,2,3-triazole-4-carboxamide] | < 100 nM |
| O=C(Cc1cccc(OC(F)(F)F)c1)Nc1ccc(CCCCn2cc(C(=O)NCc3ccccn3)nn2)nn1 [Example 529, N-(pyridin-2-ylmethyl)-1-[4-(6-{2-[3-(trifluoromethoxy)phenyl]acetamido}pyridazin-3-yl)butyl]-1H-1,2,3-triazole-4-carboxamide] | < 100 nM |
| CNC(=O)c1cn(CCCCc2ccc(NC(=O)Cc3cccnc3)nn2)nn1 [Example 541, N-methyl-1-(4-{6-[2-(pyridin-3-yl)acetamido]pyridazin-3-yl}butyl)-1H-1,2,3-triazole-4-carboxamide] | 500 to 5000 nM |
| CNC(=O)c1cn(CCCCc2ccc(NC(=O)Cc3ccc(Cl)nc3)nn2)nn1 [Example 544, 1-(4-{6-[2-(6-chloropyridin-3-yl)acetamido]pyridazin-3-yl}butyl)-N-methyl-1H-1,2,3-triazole-4-carboxamide] | 100 to 500 nM |

More lines, now with the values ahead:

| EC50 | Compound |
| --- | --- |
| 100 to 500 nM | CNC(=O)c1cn(CCCCc2ccc(NC(=O)Cc3cc(OCC(F)(F)F)ccn3)nn2)nn1 [Example 225, N-methyl-1-(4-(6-(2-(4-(2,2,2-trifluoroethoxy)pyridin-2-yl)acetamido)pyridazin-3-yl)butyl)-1H-1,2,3-triazole-4-carboxamide] |
| < 100 nM | CNC(=O)c1cn(CC(F)CCc2ccc(NC(=O)Cc3cc(-c4cccc(OC(F)(F)F)c4)ccn3)nn2)nn1 (stereo not shown) [Example 242, 1-(2-fluoro-4-(6-(2-(4-(3-(trifluoromethoxy)phenyl)pyridin-2-yl)acetamido)pyridazin-3-yl)butyl)-N-methyl-1H-1,2,3-triazole-4-carboxamide] |
| 100 to 500 nM | CNC(=O)c1cn(C[C@H](F)CCc2ccc(NC(=O)Cc3ccccn3)nn2)nn1 [Example 254, (R)-1-(2-fluoro-4-(6-(2-(pyridin-2-yl)acetamido)pyridazin-3-yl)butyl)-N-methyl-1H-1,2,3-triazole-4-carboxamide] |
| < 100 nM | CNC(=O)c1cn(C[C@H](F)CCc2ccc(NC(=O)Cc3cc(-c4cccc(OC(F)(F)F)c4)ccn3)nn2)nn1 [Example 255, (R)-1-(2-fluoro-4-(6-(2-(4-(3-(trifluoromethoxy)phenyl)pyridin-2-yl)acetamido)pyridazin-3-yl)butyl)-N-methyl-1H-1,2,3-triazole-4-carboxamide] |
| 100 to 500 nM | CNC(=O)c1cn(C[C@@H](F)CCc2ccc(NC(=O)Cc3ccccn3)nn2)nn1 [Example 256, (S)-1-(2-fluoro-4-(6-(2-(pyridin-2-yl)acetamido)pyridazin-3-yl)butyl)-N-methyl-1H-1,2,3-triazole-4-carboxamide] |
| < 100 nM | CNC(=O)c1cn(C[C@@H](F)CCc2ccc(NC(=O)Cc3cc(-c4cccc(OC(F)(F)F)c4)ccn3)nn2)nn1 [Example 257, (S)-1-(2-fluoro-4-(6-(2-(4-(3-(trifluoromethoxy)phenyl)pyridin-2-yl)acetamido)pyridazin-3-yl)butyl)-N-methyl-1H-1,2,3-triazole-4-carboxamide] |
| < 100 nM | CNC(=O)c1cn(CC(F)CCc2ccc(NC(=O)Cc3cc(C(F)(F)F)cc(C)n3)nn2)nn1 (stereo not shown) [Example 264, 1-(2-fluoro-4-(6-(2-(6-methyl-4-(trifluoromethyl)pyridin-2-yl)acetamido)pyridazin-3-yl)butyl)-N-methyl-1H-1,2,3-triazole-4-carboxamide] |
| < 100 nM | CNC(=O)c1cn(CC(F)CCc2ccc(NC(=O)Cc3cc(OC(C)C(F)(F)F)ccn3)nn2)nn1 (stereo not shown) [Example 266, 1-(2-fluoro-4-(6-(2-(4-((1,1,1-trifluoropropan-2-yl)oxy)pyridin-2-yl)acetamido)pyridazin-3-yl)butyl)-N-methyl-1H-1,2,3-triazole-4-carboxamide] |
| 500 to 5000 nM | CC(C)NC(=O)c1cn(CCCCc2ccc(NC(=O)Cc3cccc(OC(F)(F)F)c3)nn2)nn1 [Example 526, N-(propan-2-yl)-1-[4-(6-{2-[3-(trifluoromethoxy)phenyl]acetamido}pyridazin-3-yl)butyl]-1H-1,2,3-triazole-4-carboxamide] |
| 500 to 5000 nM | O=C(Cc1cccc(OC(F)(F)F)c1)Nc1ccc(CCCCn2cc(C(=O)NCCO)nn2)nn1 [Example 528, N-(2-hydroxyethyl)-1-[4-(6-{2-[3-(trifluoromethoxy)phenyl]acetamido}pyridazin-3-yl)butyl]-1H-1,2,3-triazole-4-carboxamide] |
| 100 to 500 nM | CNC(=O)c1cn(CCCCc2ccc(NC(=O)Cc3cncc(Br)c3)nn2)nn1 [Example 546, 1-(4-{6-[2-(5-bromopyridin-3-yl)acetamido]pyridazin-3-yl}butyl)-N-methyl-1H-1,2,3-triazole-4-carboxamide] |
| 500 to 5000 nM | CC(C)(O)CNC(=O)c1cn(CCCCc2ccc(NC(=O)Cc3cccc(OC(F)(F)F)c3)nn2)nn1 [Example 549, N-(2-hydroxy-2-methylpropyl)-1-[4-(6-{2-[3-(trifluoromethoxy)phenyl]acetamido}pyridazin-3-yl)butyl]-1H-1,2,3-triazole-4-carboxamide] |
| 100 to 500 nM | COCCNC(=O)c1cn(CCCCc2ccc(NC(=O)Cc3cccc(OC(F)(F)F)c3)nn2)nn1 [Example 551, N-(2-methoxyethyl)-1-[4-(6-{2-[3-(trifluoromethoxy)phenyl]acetamido}pyridazin-3-yl)butyl]-1H-1,2,3-triazole-4-carboxamide] |
| < 100 nM | CNC(=O)c1cn(CCCCc2ccc(NC(=O)Cc3cc(-c4ccc(F)cc4C(F)(F)F)ccn3)nn2)nn1 [Example 606, 1-(4-(6-(2-(4-(4-fluoro-2-(trifluoromethyl)phenyl)pyridin-2-yl)acetamido)pyridazin-3-yl)butyl)-N-methyl-1H-1,2,3-triazole-4-carboxamide] |
| < 100 nM | CNC(=O)c1cn(CCCCc2ccc(NC(=O)Cc3cc(-c4cccc(OC(F)(F)F)c4F)ccn3)nn2)nn1 [Example 607, 1-(4-(6-(2-(4-(2-fluoro-3-(trifluoromethoxy)phenyl)pyridin-2-yl)acetamido)pyridazin-3-yl)butyl)-N-methyl-1H-1,2,3-triazole-4-carboxamide] |
| < 100 nM | CNC(=O)c1cn(CCCCc2ccc(NC(=O)Cc3cc(-c4cccc(Cl)c4OC(F)(F)F)ccn3)nn2)nn1 [Example 608, 1-(4-(6-(2-(4-(3-chloro-2-(trifluoromethoxy)phenyl)pyridin-2-yl)acetamido)pyridazin-3-yl)butyl)-N-methyl-1H-1,2,3-triazole-4-carboxamide] |
